Five compounds from BindingDB's records for PubMed 2704370 (National Institute of Mental Health, 1989) can be followed below.

Test [1] has as its target T1, Muscarinic acetylcholine receptor M4 (Homo sapiens, UniProt P08173).
T1 sequence (P08173 whole entry): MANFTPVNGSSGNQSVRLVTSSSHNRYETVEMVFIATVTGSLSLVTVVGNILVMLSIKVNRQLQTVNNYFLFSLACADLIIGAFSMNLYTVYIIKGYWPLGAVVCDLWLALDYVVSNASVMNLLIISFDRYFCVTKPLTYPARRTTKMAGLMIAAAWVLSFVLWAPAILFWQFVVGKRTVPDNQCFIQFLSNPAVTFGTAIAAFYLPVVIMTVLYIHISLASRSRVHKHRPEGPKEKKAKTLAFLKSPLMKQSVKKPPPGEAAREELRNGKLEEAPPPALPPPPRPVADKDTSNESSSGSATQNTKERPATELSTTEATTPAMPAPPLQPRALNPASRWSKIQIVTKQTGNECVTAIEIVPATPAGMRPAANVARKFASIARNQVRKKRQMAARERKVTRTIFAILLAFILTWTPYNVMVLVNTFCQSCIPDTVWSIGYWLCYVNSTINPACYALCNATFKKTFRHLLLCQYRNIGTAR

The target of test [2] is T2, Muscarinic acetylcholine receptor M1 (Rattus norvegicus, UniProt P08482).
T2 sequence (P08482 whole entry): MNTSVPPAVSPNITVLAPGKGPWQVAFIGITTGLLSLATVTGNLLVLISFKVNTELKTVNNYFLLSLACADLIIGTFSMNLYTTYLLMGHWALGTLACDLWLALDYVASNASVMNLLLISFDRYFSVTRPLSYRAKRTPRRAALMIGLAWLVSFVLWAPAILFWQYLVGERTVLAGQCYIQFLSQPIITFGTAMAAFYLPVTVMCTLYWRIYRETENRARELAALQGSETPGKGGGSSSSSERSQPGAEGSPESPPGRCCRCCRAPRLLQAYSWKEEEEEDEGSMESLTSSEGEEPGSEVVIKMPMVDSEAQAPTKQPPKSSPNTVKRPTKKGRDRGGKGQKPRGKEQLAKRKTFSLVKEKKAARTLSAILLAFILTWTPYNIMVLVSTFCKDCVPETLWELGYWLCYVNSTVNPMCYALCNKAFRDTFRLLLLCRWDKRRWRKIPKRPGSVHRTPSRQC

In test [3] the target is T3, Muscarinic acetylcholine receptor M5 (Homo sapiens, UniProt P08912).
T3 sequence (P08912 whole entry): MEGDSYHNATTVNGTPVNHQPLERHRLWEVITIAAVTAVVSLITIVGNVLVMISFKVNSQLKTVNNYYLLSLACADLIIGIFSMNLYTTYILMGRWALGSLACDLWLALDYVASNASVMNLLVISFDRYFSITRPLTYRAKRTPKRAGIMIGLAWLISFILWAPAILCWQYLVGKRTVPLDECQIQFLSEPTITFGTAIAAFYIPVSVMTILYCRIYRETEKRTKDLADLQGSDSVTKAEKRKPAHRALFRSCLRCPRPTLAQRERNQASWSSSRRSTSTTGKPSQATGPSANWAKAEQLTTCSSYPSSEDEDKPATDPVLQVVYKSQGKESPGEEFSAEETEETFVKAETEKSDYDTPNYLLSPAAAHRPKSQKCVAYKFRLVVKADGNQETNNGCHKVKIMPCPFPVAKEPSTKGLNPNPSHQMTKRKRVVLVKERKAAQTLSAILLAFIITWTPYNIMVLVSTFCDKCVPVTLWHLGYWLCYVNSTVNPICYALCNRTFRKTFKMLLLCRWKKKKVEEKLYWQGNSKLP

Broadly, the Ki is a measure of affinity in units of concentration, obtained from inhibition or displacement. A high value points to weaker binding. Take `C[N+]1(C)CCN(CC(O)(c2ccccc2)C2CCCCC2)CC1` (stereo unspecified) [CAS_115-63-9]: the results for the Ki in test [1], in test [2] and in test [3] were 5.5 nM, 2.3 nM and 3.7 nM, respectively.

As to `OC(CCCN1CCCCC1)(c1ccccc1)C1CCCCC1` (stereo unspecified) [CAS_113010-69-8], the Ki in test [2] stood at 11 nM; in test [3] it was 83 nM.

For the compound `C[N+]1([SiH3])CCN(CC(O)(c2ccccc2)C2CCCCC2)CC1` (stereo unspecified) [CAS_124393-85-7], the Ki in test [1] was determined as 3.2 nM; in test [2], 2 nM; in test [3], 2 nM.

Consider `O[Si](CCCN1CCCCC1)(c1ccccc1)C1CCCCC1` (stereo unspecified) [HHSiD], for which the results for the Ki in test [2] and in test [3] were 44 nM and 63 nM, respectively.

In test [3], `COc1ccccc1CNCCCCCCNCCCCCCCCNCCCCCCNCc1ccccc1OC` [METHOCTRAMINE] came in with an inhibitory constant (Ki) of 57 nM.
